# Data taken from PMC6512958 (Hypertension (Dallas, Tex. : 1979), 2019).
# Tests used:
# [1] = test system: HTN; conditions: cited from earlier work
# [2] = test system: human MasR; assay: cAMP production in HEK293 cells overexpressing human MasR; type: cell-based; conditions: 10^-7, 10^-6 and 10^-5 M, 10 min; RIA; vs no treatment; Figure 2B
# [3] = test system: normal canines; type: in vivo, male mongrel dogs; conditions: IV infusion 8.66 pmol/kg/min
# [4] = test system: diabetic mice and rats overexpressing the mouse Ren2-gene; conditions: long-term treatment, cited from earlier work
# [5] = test system: rodents; conditions: ANG1-7/MasR, rodents / diet-induced obesity; cited from earlier work
# [6] = cited from earlier work
# [7] = test system: human pGC-A; assay: cGMP production in HEK293 cells overexpressing human pGC-A; type: cell-based; conditions: 10^-10, 10^-8 and 10^-6 M, 10 min; RIA; vs no treatment; Figure 2A
# [8] = test system: humans with stable HF; conditions: chronic subcutaneous BNP, human HF; cited from earlier work
substance,measurement,setting,value
sacubitril/valsartan,efficacy in HTN,[1],demonstrated efficacy in HTN
Angiotensin 1-7 [ANG1–7],cAMP production (MasR activation),[2],significantly increasing concentrations of cAMP production
same,reduction in MAP compared with BNP and NPA7,[3]; Figure 4A,modest
same,"mean arterial pressure (MAP), during drug infusion","[3]; n=5 (ANG1-7), Figure 4A",did not reduce MAP
same,"cardiomyocyte hypertrophy, apoptosis and fibrosis",[4]; diabetic mice and rats overexpressing the mouse Ren2-gene,prevented
same,cardiac function in diabetic mice,[4],significantly improved
same,obesity-induced HTN and brown adipocyte differentiation,[5],protection from obesity-induced HTN in rodents and induction of brown adipocyte differentiation
same,half-life time,[6],extremely short
same,in vivo degradation,[6],rapid in vivo degradation
B-type natriuretic peptide [BNP],cGMP production (pGC-A activation),[7],significantly increasing concentrations of cGMP production
same,mean arterial pressure (MAP),"[3]; BNP n=5, NPA7 n=6, Figure 4A",reduced MAP significantly
same,symptoms and myocardial structure and function,[8],improved symptoms and myocardial structure and function
